Numbers after ± are expanded uncertainties.
How the values were obtained:
[1] = Liquid; for mass density: Vibrating tube method; for vapor or sublimation pressure: Ebulliometric method (Recirculating still)
[2] = refractive index (Na D-line) (dimensionless); conditions: 298.15 K; 101.33 kPa; Liquid; Standard Abbe refractometry
[3] = xn = mol fraction of the nth substance listed; conditions: Liquid, Vibrating tube method

CCOC(=O)CC [ethyl propanoate]
[1]
Conditions	mass density [kg/m3]	vapor or sublimation pressure [kPa]
288.15 K	895.58 ± 0.72	–
298.15 K	884.15 ± 0.71	–
308.15 K	872.62 ± 0.7	–
318.15 K	861.08 ± 0.68	–
328.15 K	849.41 ± 0.67	–
348.07 K	–	45 ± 0.1
349.55 K	–	47.5 ± 0.11
350.96 K	–	50 ± 0.11
352.34 K	–	52.5 ± 0.12
353.66 K	–	55 ± 0.12
354.91 K	–	57.5 ± 0.13
356.15 K	–	60 ± 0.13
357.32 K	–	62.5 ± 0.14
358.48 K	–	65 ± 0.14
359.57 K	–	67.5 ± 0.15
360.66 K	–	70 ± 0.15
361.72 K	–	72.5 ± 0.16
362.74 K	–	75 ± 0.16
363.71 K	–	77.5 ± 0.17
364.69 K	–	80 ± 0.17
365.63 K	–	82.5 ± 0.18
366.55 K	–	85 ± 0.18
367.47 K	–	87.5 ± 0.19
368.35 K	–	90 ± 0.19
369.21 K	–	92.5 ± 0.2
370.06 K	–	95 ± 0.2
370.87 K	–	97.5 ± 0.21
371.73 K	–	100 ± 0.21
372.09 K	–	101.32 ± 0.22
372.18 K	–	101.32 ± 0.23
373.31 K	–	105 ± 0.22
374.84 K	–	110 ± 0.23
376.29 K	–	115 ± 0.24
377.7 K	–	120 ± 0.25
379.08 K	–	125 ± 0.26
380.4 K	–	130 ± 0.27
381.67 K	–	135 ± 0.28
382.91 K	–	140 ± 0.29
384.15 K	–	145 ± 0.3
385.32 K	–	150 ± 0.32
386.47 K	–	155 ± 0.33
387.6 K	–	160 ± 0.34
388.69 K	–	165 ± 0.35
389.77 K	–	170 ± 0.36
390.81 K	–	175 ± 0.37
391.83 K	–	180 ± 0.38
392.85 K	–	185 ± 0.39
393.81 K	–	190 ± 0.4
394.77 K	–	195 ± 0.41
395.72 K	–	200 ± 0.42
396.64 K	–	205 ± 0.43
397.55 K	–	210 ± 0.44
398.43 K	–	215 ± 0.45
399.31 K	–	220 ± 0.46
400.17 K	–	225 ± 0.47
401 K	–	230 ± 0.48
401.83 K	–	235 ± 0.49
402.65 K	–	240 ± 0.5
403.46 K	–	245 ± 0.51
404.25 K	–	250 ± 0.52
405.04 K	–	255 ± 0.53
405.79 K	–	260 ± 0.54
406.56 K	–	265 ± 0.55
407.3 K	–	270 ± 0.56
408.03 K	–	275 ± 0.57
408.75 K	–	280 ± 0.58

Conditions	refractive index
[2]	1.3811 ± 0.0006

CCOC(=O)CC [ethyl propanoate] + CCCCC
mass density [kg/m3], [3]
Conditions	288.15 K	298.15 K
x1 = 0.0503	643.39 ± 0.28	–
x1 = 0.0545	–	634.55 ± 0.28
x1 = 0.1013	–	646.47 ± 0.29
x1 = 0.1017	656.5 ± 0.29	–
x1 = 0.1511	669.25 ± 0.3	–
x1 = 0.1538	–	659.85 ± 0.3
x1 = 0.2025	682.62 ± 0.31	–
x1 = 0.2051	–	673.1 ± 0.31
x1 = 0.254	–	685.81 ± 0.32
x1 = 0.2551	696.41 ± 0.32	–
x1 = 0.3012	708.53 ± 0.33	–
x1 = 0.3038	–	698.8 ± 0.33
x1 = 0.3525	722.09 ± 0.35	–
x1 = 0.3594	–	713.37 ± 0.35
x1 = 0.3947	733.28 ± 0.36	–
x1 = 0.4062	–	725.7 ± 0.36
x1 = 0.4496	747.92 ± 0.38	–
x1 = 0.4575	–	739.37 ± 0.38
x1 = 0.5009	761.7 ± 0.4	–
x1 = 0.5083	–	752.81 ± 0.4
x1 = 0.5519	775.33 ± 0.42	–
x1 = 0.56	–	766.57 ± 0.42
x1 = 0.5987	787.9 ± 0.45	–
x1 = 0.606	–	778.84 ± 0.44
x1 = 0.6449	800.24 ± 0.47	–
x1 = 0.6559	–	792.17 ± 0.47
x1 = 0.6974	814.34 ± 0.5	–
x1 = 0.7061	–	805.64 ± 0.5
x1 = 0.7488	828.17 ± 0.53	–
x1 = 0.7498	–	817.26 ± 0.52
x1 = 0.7974	841.13 ± 0.56	–
x1 = 0.8007	–	830.93 ± 0.56
x1 = 0.8477	854.65 ± 0.6	–
x1 = 0.8535	–	844.98 ± 0.6
x1 = 0.8951	867.4 ± 0.64	–
x1 = 0.9054	–	858.85 ± 0.64
x1 = 0.9482	881.6 ± 0.68	–
x1 = 0.9511	–	871.06 ± 0.67
x1 = 1	895.58 ± 0.72	884.15 ± 0.71

CCCCCCC [heptane]
[1]
Conditions	mass density [kg/m3]	vapor or sublimation pressure [kPa]
288.15 K	688.16 ± 0.25	–
298.15 K	679.62 ± 0.25	–
308.15 K	670.96 ± 0.25	–
318.15 K	662.33 ± 0.25	–
328.15 K	653.61 ± 0.25	–
371.38 K	–	101.32 ± 0.46

Conditions	refractive index
[2]	1.3853 ± 0.0005

CCCCCCC [heptane] + CCC(=O)OC
[3], x2 = 0
Conditions	mass density [kg/m3]
288.15 K	688.16 ± 0.25
298.15 K	679.62 ± 0.25
308.15 K	670.96 ± 0.25
318.15 K	662.33 ± 0.25
328.15 K	653.61 ± 0.25

CCCCCCC [heptane] + CCOC(=O)CC
[3], x2 = 0
Conditions	mass density [kg/m3]
288.15 K	688.16 ± 0.25
298.15 K	679.62 ± 0.25
308.15 K	670.96 ± 0.25
318.15 K	662.33 ± 0.25
328.15 K	653.61 ± 0.25

— the NIST ThermoML archive (doi:10.1021/je4009415)
